Tests used:
MT-ND3 mutant cell line = experiment: Cytotoxicity evaluation 2: cell survival level by MTT assay (Cell Counting Kit-8); assay type: cell-based, human; conditions: high concentrations (30 μM and 100 μM), cultured 5 days
Description: Hereinafter, the present invention will be described more specifically with reference to Examples, but the technical scope of the present invention is not limited to these Examples. The INS-1E cell line was cultured in an incubator (37° C., 21% O2, 5% CO2) in the presence of RPMI-1640 Medium (manufactured by GIBCO) containing 11.1 mM glucose, 10% FBS, 1 mM sodium pyruvate, 10 mM HEPES, 2 mM glutamine, 50 μM β-mercaptoethanol, penicillin at 100 U/mL, and streptomycin at 100 μg/mL (hereinafter simply referred to as “RPMI-1640 Medium”). […]
An MT-ND3 mutant cell line was seeded in a 96-well plate at 2×10^3 cells per well and cultured for 2 days in the presence of DMEM Low Glucose culture medium, then 0.1% DMSO, which is a solvent for the compounds, or various concentrations (0.003 μM, 0.01 μM, 0.03 μM, […], 0.3 μM, 1 μM, 3 μM, 10 μM, 30 μM, or 100 μM) of each enantiomer (S(+) form or R(−) form) of MA5 was added, the cells were further cultured for 5 days, and then the cell survival level was measured. Specifically, the cell survival level was measured by an MTT assay using Cell Counting Kit-8 (manufactured by Dojindo Laboratories). That is, 100 μL of Cell Count Reagent SF was added to each well, incubated for 2 hours, and stirred for 3 seconds with a microplate reader, and the absorbance at 450 nm (reference: 750 nm) was measured (see FIG. 4). […]

HEI-OC1 cell line = experiment: Evaluation of SIRT expression level in animal cells (Western blotting); assay type: cell-based, mouse; conditions: 1 to 30 μM, cultured 24 hours, compared with absence of the compound
Description: A mouse inner ear cell line (HEI-OC1 cell line) was seeded in a dish containing 10 mL of a culture medium (low glucose DMEM medium [glucose concentration of […]] supplemented with 10% by weight of FBS) at 1×10^6 cells/dish and cultured. One day after, 0.1% DMSO, which is a solvent for the compounds, or various concentrations (1 μM, 3 μM, 10 μM, or 30 μM) of three compounds (racemic form of MA5, S(+) form of MA5, or R(−) form of MA5) were added, and the cells were cultured for 24 hours. After the culture was completed, the cells were collected, the cells were disrupted by a conventional method, and the expression levels of various SIRTs (SIRT1, SIRT2, SIRT3, SIRT5, SIRT6, and SIRT7) in the cells were analyzed by Western blotting (see FIGS. 12 to 14 [FIG. 12-1 to FIG. 14-2]).

Structure (SMILES)	viable cell level (MT-ND3 mutant cell line)	expression levels of the various SIRTs (SIRT1, SIRT2, SIRT3, SIRT5, SIRT6, and SIRT7) in the cells (HEI-OC1 cell line)
O=C(C[C@@H](C(=O)O)c1c[nH]c2ccccc12)c1ccc(F)cc1F [R(−) form of MA5, 4-(2,4-difluorophenyl)-2-(1H-indol-3-yl)-4-oxo-butanoic acid]	a significant decrease in viable cell level was observed	remained almost unchanged
O=C(C[C@H](C(=O)O)c1c[nH]c2ccccc12)c1ccc(F)cc1F [S(+) form of MA5, 4-(2,4-difluorophenyl)-2-(1H-indol-3-yl)-4-oxo-butanoic acid]	no decrease in viable cell level was observed	increased

From patent publication US20240270692A1, “S(+) FORM OF 4-(2,4-DIFLUOROPHENYL)-2-(1H-INDOL-3-YL)-4-OXO-BUTANOIC ACID” (TOHOKU UNIVERSITY, priority 2021, published 2024)
